Results from US8580731B2, “Insulin-gold nanocluster, pharmaceutical composition for reducing blood glucose comprising the same, and method for detecting adipose cells in tissue by using the same” (priority 2012, dated 2013).

System: insulin-degradation enzyme (IDE)
Test: Insulin-Au NC fluorescence in mouse brain homogenate (IDE degradation and inhibition)
Type: biochemical
Settings: inhibitor 0.01 to 1 mM pre-incubated 30 min with brain homogenate
Procedure: In addition, ten-week-old C57BL/6J male mice were well-anesthetized by i.p. injection of pentobarbital (75 mg/kg), and then the brain was removed and homogenated in PBS. The homogenate was then centrifuged at 6,000×g for 20 min and the supernatant was collected for the preparation of further experiments.
0.01, 0.1, and 1 mM doses of thiorphan or racecadotril, which was known as inhibiting agents for insulin-degradation enzyme (IDE), were co-incubated with the brain homogenates for 30 min, and then 10 μg/ml insulin-Au NCs was added and incubated with brain homogenates for 1 hour at 37° C. The detection of the insulin-Au NCs was determined by 450 nm and 650 nm of the emission excitation wavelength, respectively.

SMILES	recovery of 670 nm emission (IDE inhibition)
CC(=O)SCC(Cc1ccccc1)C(=O)NCC(=O)OCc1ccccc1 (centres unmarked) [racecadotril]	signal recovery was increased
O=C(O)CNC(=O)C(CS)Cc1ccccc1 (centres unmarked) [thiorphan]	signal recovery was increased
